According to patent US20050148646A1, “Dicationic triaryl analogs as anti-protozoan agents” (priority 2003, published 2005):
Where a name gives a salt, the structure may show the parent alone. Read-outs that look alike come from different tables or passages of the source.

Columns and labels:
[1] = tested on: Trypanosoma brucei rhodesiense (T.b.r.); test: In vitro activity vs. T. b. rhodesiense; format: cell-based
[2] = tested on: Plasmodium falciparum (P.f.); test: In vitro activity vs. P. falciparum; format: cell-based
[3] = tested on: virulent STIP900 strain of T.b.r.; test: Mouse model of T.b.r. infection; format: in vivo
[4] = read-out: IC-50 values versus Plasmodium falciparum (p.f.)
[5] = read-out: IC-50 values versus Trypanosoma brucei rhodesiense (T.b.r.)

SMILES	melting point	IC50 ([1]; Table 1, read-out: T.b.r. IC50)	IC50 ([2]; Table 1, read-out: P.f. IC50)	further results
CC(=O)O.N=C(N)c1ccc(-c2ccc(-c3nc4cc(C(=N)N)ccc4[nH]3)cc2)nc1 [Compound 44, 2-[4-(5-carbamimidoyl-pyridin-2-yl)-phenyl]-1H-benzimidazole-5-carboxamidine acetate salt]	240 to 241 °C			IC50 ([1]; Table 2, read-out: T.b.r. IC50): 41 nM; IC50 ([2]; Table 2, read-out: P.f. IC50): 7 nM
N=C(N)c1ccc(-c2ccc(O)c(-c3nc4cc(C(=N)N)ccc4[nH]3)c2)cc1 [Compound 4, 2-(4′-carbamimidoyl-4-hydroxy-biphenyl-3-yl)-1H-benzimidazole-5-carboxamidine acetate salt]		27 nM	2.1 nM	IC50 [2, 4]: < 3 nM
Cc1cc(C(=N)NO)ccc1-c1cccc(-c2nc3cc(C(=N)NO)ccc3[nH]2)c1 [Compound 27, N-hydroxy-2-[4′-(N-hydroxycarbamimidoyl)-2′-methyl-biphenyl-3-yl]-1H-benzimidazole-5-carboxamidine]	295 to 297 °C (dec.)			
CC(=O)O.N=C(N)c1ccc(-c2ccc(-c3nc4cc(C(=N)N)ccc4[nH]3)cc2)c(O)c1 [Compound 48, 2-(4′-carbamimidoyl-2′-hydroxy-biphenyl-4-yl)-1H-benzimidazole-5-carboxamidine acetate salt]	220 to 222 °C			IC50 ([1]; Table 2, read-out: T.b.r. IC50): 27 nM; IC50 ([2]; Table 2, read-out: P.f. IC50): 19.1 nM
CC(=O)O.N=C(N)c1ccc(-c2cccc(-c3nc4cc(C(=N)N)ccc4[nH]3)c2)nc1 [Compound 40, 2-[3-(5-Carbamimidoyl-pyridin-2-yl)-phenyl]-1H-benzimidazole-5-carboxamidine acetate salt]	198 to 200 °C (dec.)	15 nM	96 nM	IC50 [1, 5]: < 20 nM; cure of the virulent STIP900 strain of T.b.r. in a mouse model [3]: cure
CC(=O)O.Cc1cc(C(=N)N)ccc1-c1ccc(-c2nc3cc(C(=N)N)ccc3[nH]2)cc1 [Compound 52, 2-(4′-carbamimidoyl-2′-methylbiphenyl-4-yl)-1H-benzimidazole-5-carboxamidine acetate salt]	193 to 195 °C			IC50 ([1]; Table 2, read-out: T.b.r. IC50): 6 nM; IC50 [1, 5]: < 20 nM
N=C(NO)c1ccc(-c2ccc(-c3nc4cc(C(=N)NO)ccc4[nH]3)cc2)c(OCc2ccccc2)c1 [Compound 47, 2-[2′-benzyloxy-4′-(N-hydroxycarbamimidoyl)-biphenyl-4-yl]-N-hydroxy-1H-benzimidazole-5-carboxamidine]	250 to 253 °C (dec.)			
N=C(NO)c1ccc(-c2cccc(-c3nc4cc(C(=N)NO)ccc4[nH]3)c2O)cc1 [Compound 15, N-hydroxy-2-[2-hydroxy-4′-(N-hydroxycarbamimidoyl)-biphenyl-3-yl]-1H-benzimidazole-5-carboxamidine]	322 to 325 °C (dec.)			
N=C(NO)c1ccc(-c2cccc(-c3nc4cc(C(=N)NO)ccc4[nH]3)c2)nc1 [Compound 39, N-hydroxy-2-{3-[5-(N-hydroxycarbamimidoyl)-pyridin-2-yl]-phenyl}-1H-benzimidazole-5-carboxamidine]	295 to 297 °C (dec.)			
CC(=O)O.COc1ccc(-c2ccc(C(=N)N)cn2)cc1-c1nc2cc(C(=N)N)ccc2[nH]1 [Compound 36, 2-[5-(5-carbamimidoyl-pyridin-2-yl)-2-methoxyphenyl]-1H-benzimidazole-5-carboxamidine acetate salt]	231 to 232 °C (dec.)	14 nM	364 nM	IC50 [1, 5]: < 20 nM
CC(=O)O.N=C(N)c1ccc(-c2cccc(-c3nc4cc(C(=N)N)ccc4[nH]3)c2O)cc1 [Compound 16, 2-(4′-carbamimidoyl-2-hydroxy-biphenyl-3-yl)-1H-benzimidazole-5-carboxamidine acetate salt]	228 to 229.5 °C (dec.)	17 nM	131 nM	IC50 [1, 5]: < 20 nM; cure of the virulent STIP900 strain of T.b.r. in a mouse model [3]: cure
CC(=O)O.COc1cc(-c2ccc(C(=N)N)cc2)cc(-c2nc3cc(C(=N)N)ccc3[nH]2)c1O [Compound 12, 2-(4′-carbamimidoyl-4-hydroxy-5-methoxy-biphenyl-3-yl)-1H-benzimidazole-5-carboxamidine acetate salt]	230 to 231 °C (dec.)	31 nM	131 nM	
CC(=O)O.COc1ccc(-c2ccc(C(=N)N)cc2)cc1-c1nc2cc(C(=N)N)ccc2[nH]1 [Compound 20, 2-(4′-carbamimidoyl-4-methoxy-biphenyl-3-yl)-1H-benzimidazole-5-carboxamidine acetate salt]	220 to 221 °C	53 nM	40 nM	
N=C(N)c1ccc(-c2cccc(-c3nc4cc(C(=N)N)ccc4[nH]3)c2)cc1 [Compound 24, 2-(4′-carbamimidoyl-biphenyl-3-yl)-1H-benzimidazole-5-carboxamidine acetate salt]		4.4 nM	27.5 nM	IC50 [1, 5]: < 20 nM
Cc1cc(C(=N)NO)ccc1-c1ccc(-c2nc3cc(C(=N)NO)ccc3[nH]2)cc1 [Compound 51, N-hydroxy-2-[4′-(N-hydroxycarbamimidoyl)-2′-methyl-biphenyl-4-yl]-1H-benzimidazole-5-carboxamidine]	300 to 302 °C			
N=C(NO)c1cccc(-c2ccc(O)c(-c3nc4cc(C(=N)NO)ccc4[nH]3)c2)c1 [Compound 7, N-hydroxy-2-[4-hydroxy-3′-(N-hydroxycarbamimidoyl)-biphenyl-3-yl]-1H-benzimidazole-5-carboxamidine]	352 to 355 °C			
N=C(NO)c1ccc(-c2ccc(-c3nc4cc(C(=N)NO)ccc4[nH]3)c(F)c2)cc1 [Compound 31, 2-[3-fluoro-4′-(N-hydroxycarbamimidoyl)-biphenyl-4-yl]-N-hydroxy-1H-benzimidazole-5-carboxamidine]	281 to 283 °C (dec.)			
CC(=O)O.N=C(N)c1cccc(-c2ccc(O)c(-c3nc4cc(C(=N)N)ccc4[nH]3)c2)c1 [Compound 8, 2-(3′-carbamimidoyl-4-hydroxy-biphenyl-3-yl)-1H-benzimidazole-5-carboxamidine acetate salt]	208 to 209 °C (dec.)	213 nM	34 nM	
CC(=O)O.Cc1cc(C(=N)N)ccc1-c1cccc(-c2nc3cc(C(=N)N)ccc3[nH]2)c1 [Compound 28, 2-(4′-carbamimidoyl-2′-methyl-biphenyl-3-yl)-1H-benzimidazole-5-carboxamidine acetate salt]	201 to 203 °C	23 nM	55 nM	
N=C(N)c1ccc(-c2ccc(-c3nc4ccc(C(=N)N)cc4[nH]3)cc2)cc1 [Compound 56]				IC50 ([1]; Table 2, read-out: T.b.r. IC50): 7.7 nM; IC50 [1, 5]: < 20 nM; IC50 ([2]; Table 2, read-out: P.f. IC50): 0.5 nM; IC50 [2, 4]: < 3 nM
COc1ccc(-c2ccc(C(=N)NO)cc2)cc1-c1nc2cc(C(=N)NO)ccc2[nH]1 [Compound 19, N-hydroxy-2-[4′-(N-hydroxycarbamimidoyl)-4-methoxy-biphenyl-3-yl]-1H-benzimidazole-5-carboxamidine]	> 340 °C			
N=C(NO)c1ccc(-c2cccc(-c3nc4cc(C(=N)NO)ccc4[nH]3)c2)cc1 [Compound 23, N-hydroxy-2-[4′-(N-hydroxycarbamimidoyl)-biphenyl-3-yl]-1H-benzimidazole-5-carboxamidine]	317 to 319 °C			
COc1cc(-c2ccc(C(=N)NO)cc2)cc(-c2nc3cc(C(=N)NO)ccc3[nH]2)c1O [Compound 11, N-hydroxy-2-[4-hydroxy-4′-(N-hydroxycarbamimidoyl)-5-methoxy-biphenyl-3-yl]-1H-benzimidazole-5-carboxamidine]	319 to 321 °C			
CC(=O)O.N=C(N)c1ccc2[nH]c(-c3ccc(-c4ccc(C(=N)N)c(F)c4)cc3)nc2c1 [Compound 32, 2-(4′-carbamimidoyl-3′-fluoro-biphenyl-4-yl)-1H-benzimidazole-5-carboxamidine acetate salt]	210 to 212 °C (dec.)			IC50 ([1]; Table 2, read-out: T.b.r. IC50): 35 nM; IC50 ([2]; Table 2, read-out: P.f. IC50): 1.3 nM; IC50 [2, 4]: < 3 nM
N=C(NO)c1ccc(-c2ccc(-c3nc4cc(C(=N)NO)ccc4[nH]3)cc2)nc1 [Compound 43, N-hydroxy-2-{4-[5-(N-hydroxycarbamimidoyl)-pyridin-2-yl]-phenyl}-1H-benzimidazole-5-carboxamidine]	305 to 308 °C (dec.)			
